US12509431B2, “1,4-dihydroquinazolinone compounds and uses thereof” (Edgewise Therapeutics, Inc., priority 2022, dated 2025)

Columns and labels:
Format in all cases: biochemical
Conditions in all cases: Table 7
[1] = test system: Rabbit Skeletal myofibrils (rabbit psoas muscle); experiment: Myofibril ATPase assay (PK/LDH NADH-coupled), skeletal myofibrils
Method in brief: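 ATPase rate taken as linear-regression slope of A340 (NADH depletion through PK/LDH coupling) over a 75 min kinetic read, with psoas-derived rabbit skeletal myofibrils at pH 7.0. Four-parameter fits of vehicle-normalized activity give EC25 and, where reached, EC50.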

[2] = target: T1, Porcine Ventricle myofibrils (left ventricle of Yucatan minipigs) (Sus scrofa, UniProt P79293); experiment: Myofibril ATPase assay (PK/LDH NADH-coupled), ventricle myofibrils
T1 construct: Myofibrils from porcine cardiac muscle was isolated from the left ventricle of Yucatan minipigs; tissue Exemplar Genetics; host or cells: left ventricle of Yucatan minipigs
T1 sequence (P79293 whole entry): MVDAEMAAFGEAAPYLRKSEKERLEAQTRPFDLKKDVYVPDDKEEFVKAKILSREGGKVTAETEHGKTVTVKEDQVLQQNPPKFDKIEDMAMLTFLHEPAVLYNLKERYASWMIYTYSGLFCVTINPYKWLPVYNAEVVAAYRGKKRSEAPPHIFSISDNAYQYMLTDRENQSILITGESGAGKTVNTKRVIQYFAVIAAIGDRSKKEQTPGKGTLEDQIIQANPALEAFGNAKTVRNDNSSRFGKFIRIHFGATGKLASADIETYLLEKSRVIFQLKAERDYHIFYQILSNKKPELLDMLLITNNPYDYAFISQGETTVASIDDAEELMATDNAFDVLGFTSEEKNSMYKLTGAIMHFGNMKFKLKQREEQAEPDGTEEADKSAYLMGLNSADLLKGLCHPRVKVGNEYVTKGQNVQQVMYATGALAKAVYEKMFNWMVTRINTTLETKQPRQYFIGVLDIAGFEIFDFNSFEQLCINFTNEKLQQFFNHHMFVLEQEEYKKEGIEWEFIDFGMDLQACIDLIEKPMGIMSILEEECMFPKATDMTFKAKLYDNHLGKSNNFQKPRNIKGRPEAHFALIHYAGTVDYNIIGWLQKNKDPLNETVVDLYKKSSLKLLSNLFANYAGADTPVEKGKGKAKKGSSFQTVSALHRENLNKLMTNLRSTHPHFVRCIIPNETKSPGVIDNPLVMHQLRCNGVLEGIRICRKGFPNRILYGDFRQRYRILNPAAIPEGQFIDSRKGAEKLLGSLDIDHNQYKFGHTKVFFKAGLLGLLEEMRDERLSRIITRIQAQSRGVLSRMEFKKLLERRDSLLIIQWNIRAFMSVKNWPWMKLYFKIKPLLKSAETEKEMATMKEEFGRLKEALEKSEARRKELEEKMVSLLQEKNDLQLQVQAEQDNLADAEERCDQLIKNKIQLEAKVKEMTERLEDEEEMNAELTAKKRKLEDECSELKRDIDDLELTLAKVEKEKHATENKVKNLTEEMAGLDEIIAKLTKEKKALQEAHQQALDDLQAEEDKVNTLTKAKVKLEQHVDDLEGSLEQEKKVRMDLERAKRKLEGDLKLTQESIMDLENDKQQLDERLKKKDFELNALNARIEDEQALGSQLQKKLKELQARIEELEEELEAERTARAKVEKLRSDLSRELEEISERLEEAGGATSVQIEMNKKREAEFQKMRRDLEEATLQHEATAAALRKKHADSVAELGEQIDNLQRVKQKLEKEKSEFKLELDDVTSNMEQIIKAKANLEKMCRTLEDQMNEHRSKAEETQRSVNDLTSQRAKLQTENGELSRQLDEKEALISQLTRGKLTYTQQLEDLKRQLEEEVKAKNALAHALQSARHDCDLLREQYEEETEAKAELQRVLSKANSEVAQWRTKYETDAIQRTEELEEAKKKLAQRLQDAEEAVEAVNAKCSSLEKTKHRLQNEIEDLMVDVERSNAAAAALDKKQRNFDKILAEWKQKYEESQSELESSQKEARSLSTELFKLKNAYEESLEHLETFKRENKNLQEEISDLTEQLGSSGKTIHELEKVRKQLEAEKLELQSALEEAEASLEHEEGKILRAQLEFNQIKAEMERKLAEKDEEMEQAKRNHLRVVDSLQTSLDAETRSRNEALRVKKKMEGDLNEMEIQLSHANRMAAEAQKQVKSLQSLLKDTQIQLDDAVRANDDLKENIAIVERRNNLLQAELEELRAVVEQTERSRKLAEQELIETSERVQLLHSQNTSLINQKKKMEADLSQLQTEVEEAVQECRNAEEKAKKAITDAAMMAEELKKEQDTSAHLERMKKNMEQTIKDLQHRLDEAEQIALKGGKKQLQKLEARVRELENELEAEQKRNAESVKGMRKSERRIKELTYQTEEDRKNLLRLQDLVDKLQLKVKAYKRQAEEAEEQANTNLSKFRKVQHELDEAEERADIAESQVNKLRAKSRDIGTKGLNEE
Method in brief: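 NADH depletion (A340) coupled through pyruvate kinase/lactate dehydrogenase reports ATPase rate of porcine left-ventricle myofibrils over 75 min kinetic reads. Regression slopes, vehicle-normalized, fitted by 4-parameter logistic give EC25 and, where available, EC50.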

Porcine Atria myofibrils = experiment: Myofibril ATPase assay (PK/LDH NADH-coupled), atria myofibrils
Method in brief: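 Values are EC25% (and, for inhibitors, EC50%) from 4-parameter logistic fits of activity normalized to vehicle wells. Rates came from linear regression of 340 nm kinetic reads (every 1.5-2 min, 75 min) of NADH-coupled ATP turnover by porcine atria myofibrils.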

Structure (SMILES) | Rabbit Psoas IC25 [1] [µM] | Porcine Ventricle IC25 [2] [µM] | Porcine Atria IC25 (Porcine Atria myofibrils) [µM]
C[C@H](NC(=O)CN1Cc2cc(F)cnc2NC1=O)c1ccc(F)cc1F [Compound N71, N-[(1S)-1-(2,4-Difluorophenyl)ethyl]-2-{6-fluoro-2-oxo-1H,4H-pyrido[2,3-d]pyrimidin-3-yl}acetamide] | 2.804 | 100 | 36.26
C[C@H](NC(=O)CN1Cc2c(F)cncc2NC1=O)c1ccc(F)cc1F [Compound N72, N-[(1S)-1-(2,4-Difluorophenyl)ethyl]-2-{5-fluoro-2-oxo-1H,4H-pyrido[3,4-d]pyrimidin-3-yl}acetamide] | 0.4483 | 39.96 | 3.14
C[C@@H](NC(=O)CN1Cc2c(ccnc2C(F)(F)F)NC1=O)c1ccc(C#N)cc1F [Compound N73] | 35.6 | 100 | 100.00
C[C@H](NC(=O)CN1Cc2c(ccnc2C(F)(F)F)NC1=O)c1ccc(C#N)cc1F [Compound N74] | 0.07565 | 1.559 | 0.54
C[C@@H](NC(=O)CN1Cc2cc(Cl)cnc2NC1=O)c1ncc(F)cc1F [Compound N75] | 100 | 100 | 100.00
C[C@H](NC(=O)CN1Cc2cc(Cl)cnc2NC1=O)c1ncc(F)cc1F [Compound N76] | 100 | 100 | 100.00
C[C@H](NC(=O)CN1C(=O)Nc2cccnc2[C@H]1C)c1ccc(F)cc1F [Compound N77, N—((S)-1-(2,4-difluorophenyl)ethyl)-2-((R)-4-methyl-2-oxo-1,4-dihydropyrido[3,2-d]pyrimidin-3(2H)-yl)acetamide] | 2.441 | 24.08 | 2.11
C[C@H](NC(=O)CN1C(=O)Nc2cccnc2[C@@H]1C)c1ccc(F)cc1F [Compound N78, N—((S)-1-(2,4-difluorophenyl)ethyl)-2-((S)-4-methyl-2-oxo-1,4-dihydropyrido [3,2-d]pyrimidin-3(2H)-yl)acetamide] | 11.14 | 31.94 | 26.68
C[C@@H](NC(=O)CN1Cc2c(ccnc2C(F)(F)F)NC1=O)c1ncc(F)cc1F [Compound N79] | 100 | 100 | 100.00
C[C@H](NC(=O)CN1Cc2c(ccnc2C(F)(F)F)NC1=O)c1ncc(F)cc1F [Compound N80] | 4.79 | 100 | 8.03
C[C@H](NC(=O)CN1Cc2c(ccnc2C#N)NC1=O)c1ccc(F)cc1F [Compound N81] | 0.04549 | 0.545 | 0.24
C[C@H](NC(=O)CN1Cc2cc(Cl)cnc2NC1=O)c1ccc(F)cc1F [Compound N82] | 100 | 100 | 100.00
C[C@H](NC(=O)[C@H](C)N1Cc2ncccc2NC1=O)c1ccc(F)cc1F [Compound N83] | 1.802 | 100 | 0.74
C[C@H](NC(=O)[C@@H](C)N1Cc2ncccc2NC1=O)c1ccc(F)cc1F [Compound N84] | 10.25 | 100 | 3.69
C[C@H](NC(=O)CN1C(=O)Nc2ccncc2[C@H]1C)c1ccc(F)cc1F [Compound N85] | 4.254 | 100 | 18.87
C[C@H](NC(=O)CN1C(=O)Nc2ccncc2[C@@H]1C)c1ccc(F)cc1F [Compound N86] | 10.83 | 100 | 30.96
COc1ccc2c(n1)C1(CC1)N(CC(=O)N[C@@H](C)c1ccc(F)cc1F)C(=O)N2 [Compound N87, N-[(1S)-1-(2,4-Difluorophenyl)ethyl]-2-{6′-methoxy-2′-oxo-1′H-spiro[cyclopropane-1,4′-pyrido[3,2-d]pyrimidin]-3′-yl}acetamide] | 0.0571 | 0.1682 | 0.03

Structure (SMILES) | Rabbit Psoas IC25 [1] [µM] | Porcine Ventricle IC25 [2] [µM] | Porcine Atria IC25 (Porcine Atria myofibrils) [µM]
C[C@H](NC(=O)CN1C(=O)Nc2cccnc2C12CC2)c1ccc(F)cc1F [Compound N88] | 0.1726 | 0.7484 | 0.13
CC(C)C[C@@H](C(=O)N[C@@H](C)c1ccc(F)cc1F)N1Cc2nc(F)ccc2NC1=O [Compound N89] | 100 | 100 | 100.00
CC(C)C[C@H](C(=O)N[C@@H](C)c1ccc(F)cc1F)N1Cc2nc(F)ccc2NC1=O [Compound N90] | 49.64 | 100 | 100.00
Cc1ncc2c(n1)CN(CC(=O)N[C@@H](C)c1ccc(F)cc1F)C(=O)N2 [Compound N91] | 17.09 | 100 | 56.88
C[C@H](NC(=O)[C@H](C)N1Cc2nc(F)ccc2NC1=O)c1ccccc1F [Compound N92] | 100 | 100 | 100.00
C[C@H](NC(=O)[C@@H](C)N1Cc2nc(F)ccc2NC1=O)c1ccccc1F [Compound N93] | 100 | 100 | 1.66
C[C@H](NC(=O)[C@H](C)N1Cc2c(ccnc2Br)NC1=O)c1ccc(F)cc1F [Compound N94] | 0.0739 | 0.4952 | 0.22
C[C@H](NC(=O)[C@@H](C)N1Cc2c(ccnc2Br)NC1=O)c1ccc(F)cc1F [Compound N95] | 0.9565 | 5.968 | 3.69
C[C@H](NC(=O)[C@H](Cc1ccccc1)N1Cc2nc(F)ccc2NC1=O)c1ccc(F)cc1F [Compound N96] | 100 | 100 | 100.00
C[C@H](NC(=O)[C@@H](Cc1ccccc1)N1Cc2nc(F)ccc2NC1=O)c1ccc(F)cc1F [Compound N97] | 90.25 | 100 | 100.00
C[C@H](NC(=O)[C@H](C)N1Cc2nc(F)ccc2NC1=O)c1ccc(F)cc1 [Compound N98] | 8.57 | 71.64 | 0.36
C[C@H](NC(=O)[C@@H](C)N1Cc2nc(F)ccc2NC1=O)c1ccc(F)cc1 [Compound N99] | 100 | 100 | 8.28
O=C(CN1Cc2c(ccnc2Cl)NC1=O)N[C@@H](c1ccc(F)cc1F)C(F)(F)F [Compound N100] | 9.48 | 100 | 100.00
O=C(CN1Cc2c(ccnc2Cl)NC1=O)N[C@H](c1ccc(F)cc1F)C(F)(F)F [Compound N101] | 0.1554 | 1.94 | 0.27
C[C@H](NC(=O)CN1Cc2nc(Br)ccc2NC1=O)c1ccc(F)cc1F [Compound N103] | 1.03 | 9.96 | 0.16
C[C@@H](NC(=O)CN1Cc2nc(F)ccc2NC1=O)c1ncc(F)cc1F [Compound N104, N-[(1R)-1-(3,5-Difluoropyridin-2-yl)ethyl]-2-[6-fluoro-2-oxo-1H,4H-pyrido[3,2-d]pyrimidin-3-yl]acetamide] | 0.1699 | 4.155 | 0.16
